Data reported in US20260364078A1, “PURINE NUCLEOSIDE PHOSPHORYLASE INHIBITORS FOR THE TREATMENT OF METABOLIC SYNDROME AND ASSOCIATED CONDITIONS” (METASHAPE PHARMA AG, priority 2022, published 2026).

Legend:
[1] = Polymorph form conversion / solid-state stability (XRPD, VT-XRPD); format: physicochemical
Procedure: To confirm stability and suitability of Ulodesine hemi-glutarate Type A, a polymorph screening was conducted to search for other potential crystal forms and identify the most suitable form to confirm the previous findings.
Using glutarate Type A as starting material, a polymorph screening was conducted under 100 conditions through methods of anti-solvent addition, solid vapor diffusion, liquid vapor diffusion, slow evaporation, polymer-induced crystallization, temperature cycling, slurry at room temperature (RT)/50 °C and slow cooling.
X-ray powder diffraction data at variable temperature was collected at on a Malvern Panalytical Empyrean diffractometer. Flat a few milligrams of sample on a sample holder and compact it by a glass slide with protection of a piece of weighting paper. An X-ray generator of 1800 W was employed at 45 kV and 40 mA and was equipped with an X-ray tube of Cu (Kα), with the Kα2/Kα1 intensity ratio of 0.50 (1.54439 Å/1.5406 Å). Data were collected from 3° to […] (2θ) at a step size of 0.026° (2θ) with time per step of 49.7 s.
Glutarate Type B (E0007-A01-06) was only observed by heating glutarate Type A to 130 °C using X-ray powder diffractometer at variable temperature mode (VT-XRPD).
Based on the characterization results, glutarate Type C was speculated as a channel hydrate (the water molecules of a channel hydrate lie next to other water molecules of adjoining unit cell, forming channels through the crystals).
Type C was re-prepared at 100 mg in triplicate via temperature cycling slurry in anisole/MeOH (1:2, v/v).

DIO mouse model [2] = test: Example 3: liver parameters in DIO mouse model; format: in vivo, C57/BL6J mice; settings: 2 mg/kg p.o., 3 days a week, 8 weeks
Text: The aim of this study is to determine the effect of low and intermittent dosing of ulodesine hemi glutarate on the liver parameters: liver weight, total cholesterol, triglycerides, AST and ALT. The study assessed ulodesine hemi glutarate efficacy on the listed parameters in the DIO mouse model of obesity and metabolic dysfunction.
Method: C57/BL6J mice were fed obesogenic diet D12492 (60 kcal % fat) from age 6 weeks. Eighteen weeks old mice (approximately 40 g) were either treated with vehicle (control) or ulodesine hemi glutarate at 2 mg/kg for 3 days a week (days 1, 2 and 3) given orally for 8 weeks. At the end of eight weeks, the liver was removed and the following parameters were assessed: total cholesterol, triglycerides, AST and ALT.

DIO mouse model [3] = test: Example 2: low and intermittent dosing in DIO mouse model; format: in vivo, C57/BL6J mice; settings: 2 mg/kg p.o., 3 days a week, vs control
Text: The aim of this study is to determine the effect of a low and intermittent dosing regime of ulodesine hemi glutarate on the following parameters: weight gain, food intake, fasting blood glucose concentration, serum insulin, serum cholesterol, plasma liver enzymes aspartate aminotransferase (AST) and alanine transaminase (ALT), inguinal white adipose tissue (iWAT), BAT; inosine in plasma and NAD+ in whole blood, and expression of lipogenesis (fatty acid synthesis) markers in iWAT and thermogenic markers in BAT. The study will assess ulodesine hemi glutarate efficacy on the listed parameters in the DIO mouse model of obesity and metabolic dysfunction.
Method: C57/BL6J mice were fed obesogenic diet D12492 (60 kcal % fat) from age 6 weeks. Nineteen week old mice (approximately 50 g) were either treated with vehicle (control) or ulodesine hemi glutarate at 2 mg/kg for 3 days a week (days 1, 2 and 3), given orally, over a 28 day period. On day minus 2 and on day 28, animals were fasted for 6 hr (only food withdrawn) and blood was collected for both blood glucose and cholesterol. On day 28 plasma liver enzymes (AST and ALT) and insulin were determined and additional plasma and whole blood was frozen and used for inosine and NAD+ measurement. BAT and iWAT was collected at the end of the study, weighed and quantitative PCR was performed for the lipogenesis markers Stearoyl CoA desaturase 1 (SCD-1) and fatty acid synthetase (FAS) and the thermogenesis marker uncoupling protein 1 (UCP-1). Inosine and NAD+ levels in stored plasma and whole blood respectively were determined by LC/MS/MS.

## O=c1[nH]cnc2c(CN3C[C@H](CO)[C@@H](O)C3)c[nH]c12 [Glutarate Type B]
[1]; after heating to 130 °C, cooled to RT
  form conversion on cooling back to RT: quickly converted to glutarate Type A
[1]; ambient condition
  solid form stability: meta-stable form at ambient condition

## O=c1[nH]cnc2c(CN3C[C@H](CO)[C@@H](O)C3)c[nH]c12 [Glutarate Type C]
[1]; 110 °C
  form change after heating to 110 °C: no form change
[1]; RT overnight
  form change after drying: no form change
[1]; after heating
  Form change after heating: No
[1]; drying under ambient condition
  stability compared with glutarate Type A: lower stability compared with glutarate Type A
[1]; wet cakes from screening, ~25 °C/30% RT
  form conversion after drying under ambient condition: (partially) converted to glutarate Type A
[1]; wet cakes, ~6 h (~20 °C/32% RH)
  form conversion after drying under ambient condition: converted to glutarate Type A

## O=c1[nH]cnc2c(CN3C[C@H](CO)[C@@H](O)C3)c[nH]c12 [ulodesine]
DIO mouse model [2]
  liver ALT: decreases in triglycerides and ALT with treatment they did not achieve statistical significance
  liver AST: significant decrease
  liver total cholesterol (TC): significant decrease
  liver triglycerides: decreases in triglycerides and ALT with treatment they did not achieve statistical significance
DIO mouse model [3]; 28 days
  blood glucose: decreases
  iWAT/Body weight %: significant decrease
  plasma cholesterol: decreases
DIO mouse model [3]; day 28
  insulin levels: decreases
  plasma ALT: decreases
  plasma AST: decreases
